Molecular target: T1, HIV-RT (purified RT from HIV-1, expressed in E. coli) (Human immunodeficiency virus type 1 group M subtype B, UniProt P04585)
T1 construct: purified RT from HIV-1; made in house; host or cells: E. coli
Assay: Inhibition of HIV-1 reverse transcriptase (RT), [3H]-thymidine-5'-triphosphate incorporation
Type: biochemical
Conditions: purified recombinant HIV-1 RT; HIV-LTR in vitro transcript template, 18 mer primer
Source text: Inhibition of reverse transcriptase (RT) by 9b-phenyl-2,3-dihydrothiazolo[2,3-a]isoindol-5(9bH)-one.
The screening test system contains the purified RT from HIV-1, which was expressed by gene-technological methods in E. coli, as well as the components of the initiation complex, such as the in vitro transcripts of the HIV-LTR's with the neighbouring primer binding site as template and an 18 mer oligo-nucleotide as primer complementary to the primer binding site. The [^-3 H]-thymidine-5'-triphosphate incorporation was measured by counting in a β-counter.

Row | SMILES | IC50 [nM]
1 | Cc1cn([C@H]2C[C@H](N=[N+]=[N-])[C@@H](CO[P@](=O)(O)O[P@](=O)(O)OP(=O)(O)O)O2)c(=O)[nH]c1=O [AZT-TP, 3'-azido-3'-desoxythymidine-5'-triphosphate, reference compound] | 6000
2 | O=C1c2ccccc2C2(c3ccc(Cl)cc3)SCCN12 (stereo not shown) [Example 3.2] | 4000
3 | O=C1c2ccccc2C2(c3ccc(Cl)c(Cl)c3)SCCN12 (stereo not shown) [Example 3.4] | 4000
4 | Cc1cccc(C23SCCN2C(=O)c2ccccc23)c1C (stereo not shown) [Example 3.8] | 800
5 | COc1cccc(C23SCCN2C(=O)c2ccccc23)c1 (stereo not shown) [Example 3.12] | 1100
6 | O=C1c2ccccc2C2(c3cccc(C(F)(F)F)c3)SCCN12 (stereo not shown) [Example 3.15] | 1000
7 | Cc1ccc(C)c(C23SCCN2C(=O)c2ccccc23)c1 (stereo not shown) [Example 3.18] | 950
8 | O=C1c2ccccc2C2(c3ccccc3)SCCN12 (stereo not shown) [Example 3.30, 9b-phenyl-2,3-dihydrothiazolo[2,3-a]isoindol-5(9bH)-one] | 700
9 | O=C1c2ccccc2C2(c3ccccc3)N1CCS2(=O)=O (stereo not shown) [Example 4, 9b-Phenyl-2,3-dihydrothiazolo[2,3-a]isoindol-5(9bH)-one 1,1-dioxide] | 1400

Tested on: not given
Assay: not given
Conditions: Hirsch, J. Infec. Dis. 157, 427-431 (1988); cited from earlier work

Row | SMILES | therapeutic range
10 | Cc1cn([C@H]2C[C@H](N=[N+]=[N-])[C@@H](CO)O2)c(=O)[nH]c1=O [AZT, 3'-azido-3'-desoxythymidine] | very narrow therapeutic range

Source: patent US5397794A, “Use of thiazoloisoindolinone derivatives as antiviral medicaments” (Boehringer Mannheim GmbH, priority 1990, dated 1995)
